Experimental data: US20230265116A1, “DEGRADATION OF (EGFR) BY CONJUGATION OF EGFR INHIBITORS WITH E3 LIGASE LIGAND AND METHODS OF USE” (BEIGENE, LTD., priority 2020, published 2023)
Like-named read-outs stand apart in the source and are kept apart here.

Tests used:
[1] = tested on: EGFR Del19/T790M/C797S (H1975-clone #28); test: EGFR degradation HTRF assay, H1975-clone #28 DTC cells; type: cell-based
Outline: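 Compounds (top 10 uM, 5-fold, 8 points, 0.2% DMSO) incubated 16 h at 37 °C on homozygous clones: #23 Del19/C797S, #28 Del19/T790M/C797S, exogenous EGFR only in H1975. HTRF on lysates quantified remaining EGFR relative to DMSO; four-parameter fit gave DC50 and Dmax.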

[2] = target: T1, EGFR L858R/T790M/C797S (BaF3-LTC cells) (Homo sapiens, UniProt P00533, C797S/L858R/T790M); test: EGFR degradation HTRF assay, BaF3-LTC cells; type: cell-based
T1 construct: expressed in transfected cells; host or cells: BaF3
Outline: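 Cells treated 16 h at 37 °C, 5% CO2 in medium with 0.2% DMSO; top final concentration 10 uM, 5-fold dilution, 8 doses. Lysates read by HTRF (665/620 nm); degradation % versus DMSO high control, DC50 from four-parameter fit, Dmax as maximal degradation.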

[3] = H1975 # 28 DTC cells; EGFR degradation, IC50 (DC50) from curve fit; read-out: DC50(nM) H1975 # 28 DTC
[4] = H1975 # 28 DTC cells; maximum percentage of inhibition (degradation)
[5] = BaF3-LTC cells; EGFR degradation, IC50 (DC50) from curve fit; read-out: DC50(nM) BaF3-LTC
[6] = BaF3-LTC cells; maximum percentage of inhibition (degradation); read-out: Dmax (%) BaF3-LTC
[7] = read-out: DC50(nM) H1975 # 28 DTC; H1975 # 28 DTC cells; EGFR degradation, IC50 (DC50) from curve fit
[8] = BaF3-LTC cells; maximum percentage of inhibition (degradation)
[9] = read-out: DC50(nM) BaF3-LTC; BaF3-LTC cells; EGFR degradation, IC50 (DC50) from curve fit
[10] = read-out: Dmax (%) BaF3-LTC, BaF3-LTC cells; maximum percentage of inhibition (degradation)

T1 sequence (P00533 25-1210 T790M/C797S/L858R): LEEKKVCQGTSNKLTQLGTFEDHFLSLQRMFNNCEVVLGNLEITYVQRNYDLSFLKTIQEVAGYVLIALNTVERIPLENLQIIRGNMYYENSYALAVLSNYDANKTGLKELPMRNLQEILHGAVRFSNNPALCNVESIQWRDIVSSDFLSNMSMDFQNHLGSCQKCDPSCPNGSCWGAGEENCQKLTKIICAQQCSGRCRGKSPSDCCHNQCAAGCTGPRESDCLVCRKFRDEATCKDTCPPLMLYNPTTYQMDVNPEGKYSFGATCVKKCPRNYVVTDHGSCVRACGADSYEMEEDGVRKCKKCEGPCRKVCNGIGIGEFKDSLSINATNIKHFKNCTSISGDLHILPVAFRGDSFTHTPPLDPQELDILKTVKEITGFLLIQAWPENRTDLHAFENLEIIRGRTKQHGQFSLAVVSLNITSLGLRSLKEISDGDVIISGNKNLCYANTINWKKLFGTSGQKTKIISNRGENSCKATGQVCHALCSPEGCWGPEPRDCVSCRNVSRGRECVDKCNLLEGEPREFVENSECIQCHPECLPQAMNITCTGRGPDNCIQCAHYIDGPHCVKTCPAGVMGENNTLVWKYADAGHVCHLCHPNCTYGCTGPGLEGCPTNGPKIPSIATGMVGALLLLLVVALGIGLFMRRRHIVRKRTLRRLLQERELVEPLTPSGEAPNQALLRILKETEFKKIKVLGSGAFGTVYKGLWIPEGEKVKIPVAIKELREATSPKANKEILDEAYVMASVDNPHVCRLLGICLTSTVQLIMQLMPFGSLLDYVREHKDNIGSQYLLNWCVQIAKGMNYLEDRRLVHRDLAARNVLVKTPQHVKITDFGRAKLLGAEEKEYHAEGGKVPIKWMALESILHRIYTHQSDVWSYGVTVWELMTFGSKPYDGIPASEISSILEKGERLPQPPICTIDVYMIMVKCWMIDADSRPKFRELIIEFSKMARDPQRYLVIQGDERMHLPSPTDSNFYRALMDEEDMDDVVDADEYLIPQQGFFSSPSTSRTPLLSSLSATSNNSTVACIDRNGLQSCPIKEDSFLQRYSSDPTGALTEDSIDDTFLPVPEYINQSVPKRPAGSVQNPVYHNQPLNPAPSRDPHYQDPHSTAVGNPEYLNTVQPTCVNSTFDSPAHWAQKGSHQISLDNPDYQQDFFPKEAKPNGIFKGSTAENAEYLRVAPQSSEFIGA

| SMILES | DC50 [1, 3] | Dmax (%) H1975 # 28 DTC [1, 4] | DC50 [2, 5] | Dmax [2, 6] | DC50 [1, 7] | Dmax (%) BaF3-LTC [2, 8] | DC50 [2, 9] | Dmax [2, 10] |
| --- | --- | --- | --- | --- | --- | --- | --- | --- |
| CCc1cc(Nc2ncc(Br)c(Nc3ccc4nc(C)ccc4c3P(C)(C)=O)n2)c(OC2CC2)cc1N1CCC(N2CCN(CC3CN(c4cccc5c4oc(=O)n5C4CCC(=O)NC4=O)C3)CC2)CC1 (stereo not shown) [Example 600, 3-(7-(3-((4-(1-(4-((5-bromo-4-((5-(dimethylphosphoryl)-2-methylquinolin-6-yl)amino)pyrimidin-2-yl)amino)-5-cyclopropoxy-2-ethylphenyl)piperidin-4-yl)piperazin-1-yl)methyl)azetidin-1-yl)-2-oxobenzo[d]oxazol-3(2H)-yl)piperidine-2,6-dione] | 1.18 nM | 83.32% | 4.11 nM | 87.4% |  |  |  |  |
| CCc1cc(Nc2ncc(Br)c(Nc3ccc4nc(C)ccc4c3P(C)(C)=O)n2)c(OC2CC2)cc1N1CCC(N2CCN(CCc3cc4oc(=O)n(C5CCC(=O)NC5=O)c4cc3F)CC2)CC1 (stereo not shown) [Example 601, 3-(6-(2-(4-(1-(4-((5-bromo-4-((5-(dimethylphosphoryl)-2-methylquinolin-6-yl)amino)pyrimidin-2-yl)amino)-5-cyclopropoxy-2-ethylphenyl)piperidin-4-yl)piperazin-1-yl)ethyl)-5-fluoro-2-oxobenzo[d]oxazol-3(2H)-yl)piperidine-2,6-dione] | 0.632 nM | 77.35% | 8.64 nM | 89.5% |  |  |  |  |
| Cc1ccc2c(P(C)(C)=O)c(Nc3nc(Nc4cc(C)c(N5CCC(N6CCN(CCc7cccc8c7n(C)c(=O)n8C7CCC(=O)NC7=O)CC6)CC5)cc4OC4CC4)ncc3Br)ccc2n1 (stereo not shown) [Example 602, 3-(4-(2-(4-(1-(4-((5-bromo-4-((5-(dimethylphosphoryl)-2-methylquinolin-6-yl)amino)pyrimidin-2-yl)amino)-5-cyclopropoxy-2-methylphenyl)piperidin-4-yl)piperazin-1-yl)ethyl)-3-methyl-2-oxo-2,3-dihydro-1H-benzo[d]imidazol-1-yl)piperidine-2,6-dione] | 0.913 nM | 77.98% | 3.66 nM | 93% |  |  |  |  |
| CCOc1cc(N2CCC(N3CCN(CCc4ccc(F)c5c4n(CC)c(=O)n5C4CCC(=O)NC4=O)CC3)CC2)c(CC)cc1Nc1ncc(Br)c(Nc2cc(F)c3nc(CC)ccc3c2P(C)(C)=O)n1 (stereo not shown) [Example 603, 3-(4-(2-(4-(1-(4-((5-bromo-4-((5-(dimethylphosphoryl)-2-ethyl-8-fluoroquinolin-6-yl)amino)pyrimidin-2-yl)amino)-5-ethoxy-2-ethylphenyl)piperidin-4-yl)piperazin-1-yl)ethyl)-3-ethyl-7-fluoro-2-oxo-2,3-dihydro-1H-benzo[d]imidazol-1-yl)piperidine-2,6-dione] | 1.57 nM | 81.2% | 7.62 nM | 91.2% |  |  |  |  |
| CCOc1cc(N2CCC(N3CCN(CCN(C)c4cccc5c4oc(=O)n5C4CCC(=O)NC4=O)CC3)CC2)c(CC)cc1Nc1ncc(Br)c(Nc2cc(F)c3nc(CC)ccc3c2P(C)(C)=O)n1 (stereo not shown) [Example 604, 3-(7-((2-(4-(1-(4-((5-bromo-4-((5-(dimethylphosphoryl)-2-ethyl-8-fluoroquinolin-6-yl)amino)pyrimidin-2-yl)amino)-5-ethoxy-2-ethylphenyl)piperidin-4-yl)piperazin-1-yl)ethyl)(methyl)amino)-2-oxobenzo[d]oxazol-3(2H)-yl)piperidine-2,6-dione] | 0.764 nM | 69.1% | 18.5 nM | 86.1% |  |  |  |  |
| CCc1cc(Nc2ncc(Br)c(Nc3ccc4nc(C)ccc4c3P(C)(C)=O)n2)c(OC2CC2)cc1N1CCC(N2CCN(CCCc3cc(F)cc4c3oc(=O)n4C3CCC(=O)NC3=O)CC2)CC1 (stereo not shown) [Example 607, 3-(7-(3-(4-(1-(4-((5-bromo-4-((5-(dimethylphosphoryl)-2-methylquinolin-6-yl)amino)pyrimidin-2-yl)amino)-5-cyclopropoxy-2-ethylphenyl)piperidin-4-yl)piperazin-1-yl)propyl)-5-fluoro-2-oxobenzo[d]oxazol-3(2H)-yl)piperidine-2,6-dione] | 1.07 nM | 78.76% | 14.2 nM | 86.8% |  |  |  |  |
| CCOc1cc(N2CCC(N3CCN(CCc4cc5oc(=O)n(C6CCC(=O)NC6=O)c5cc4F)CC3)CC2)c(CC)cc1Nc1ncc(Br)c(Nc2ccc3nc(CC)ncc3c2P(C)(C)=O)n1 (stereo not shown) [Example 609, 3-(6-(2-(4-(1-(4-((5-bromo-4-((5-(dimethylphosphoryl)-2-ethylquinazolin-6-yl)amino)pyrimidin-2-yl)amino)-5-ethoxy-2-ethylphenyl)piperidin-4-yl)piperazin-1-yl)ethyl)-5-fluoro-2-oxobenzo[d]oxazol-3(2H)-yl)piperidine-2,6-dione] |  | 74.7% |  |  | 3.07 nM | 89.57% | 11.5 nM |  |
| CCOc1cc(N2CCC(N3CCN(C[C@H]4CCN(c5cccc6c5oc(=O)n6C5CCC(=O)NC5=O)C4)CC3)CC2)c(CC)cc1Nc1ncc(Br)c(Nc2ccc3c(=O)n(CC)ncc3c2P(C)(C)=O)n1 (stereo partly drawn) [Example 611, 3-(7-((R)-3-((4-(1-(4-((5-bromo-4-((5-(dimethylphosphoryl)-2-ethyl-1-oxo-1,2-dihydrophthalazin-6-yl)amino)pyrimidin-2-yl)amino)-5-ethoxy-2-ethylphenyl)piperidin-4-yl)piperazin-1-yl)methyl)pyrrolidin-1-yl)-2-oxobenzo[d]oxazol-3(2H)-yl)piperidine-2,6-dione] | 5.69 nM | 70.37% | 83.4 nM |  |  | 86.27% |  |  |
| CCOc1cc(N2CCC(N3CCN(CCC4CCN(c5ccc6c(oc(=O)n6C6CCC(=O)NC6=O)c5F)CC4)CC3)CC2)c(CC)cc1Nc1ncc(Br)c(Nc2ccc3nc(CC)ncc3c2P(C)(C)=O)n1 (stereo not shown) [Example 612, 3-(6-(4-(2-(4-(1-(4-((5-bromo-4-((5-(dimethylphosphoryl)-2-ethylquinazolin-6-yl)amino)pyrimidin-2-yl)amino)-5-ethoxy-2-ethylphenyl)piperidin-4-yl)piperazin-1-yl)ethyl)piperidin-1-yl)-7-fluoro-2-oxobenzo[d]oxazol-3(2H)-yl)piperidine-2,6-dione] |  | 72.14% |  |  | 0.656 nM |  | 7.68 nM | 93.2% |
| CCOc1cc(N2CCC(N3CCN(CCc4c(F)cc5c(oc(=O)n5C5CCC(=O)NC5=O)c4C)CC3)CC2)c(CC)cc1Nc1ncc(Br)c(Nc2ccc3c(=O)n(CC)ncc3c2P(C)(C)=O)n1 (stereo not shown) [Example 613, 3-(6-(2-(4-(1-(4-((5-bromo-4-((5-(dimethylphosphoryl)-2-ethyl-1-oxo-1,2-dihydrophthalazin-6-yl)amino)pyrimidin-2-yl)amino)-5-ethoxy-2-ethylphenyl)piperidin-4-yl)piperazin-1-yl)ethyl)-5-fluoro-7-methyl-2-oxobenzo[d]oxazol-3(2H)-yl)piperidine-2,6-dione] | 3.55 nM | 71.47% | 17.3 nM | 88.6% |  |  |  |  |
| CCOc1cc(N2CCC(N3CCN(CCc4c(F)ccc5c4oc(=O)n5C4CCC(=O)NC4=O)CC3)CC2)c(CC)cc1Nc1ncc(Br)c(Nc2cc(F)c3nc(CC)ccc3c2P(C)(C)=O)n1 (stereo not shown) [Example 614, 3-(7-(2-(4-(1-(4-((5-bromo-4-((5-(dimethylphosphoryl)-2-ethyl-8-fluoroquinolin-6-yl)amino)pyrimidin-2-yl)amino)-5-ethoxy-2-ethylphenyl)piperidin-4-yl)piperazin-1-yl)ethyl)-6-fluoro-2-oxobenzo[d]oxazol-3(2H)-yl)piperidine-2,6-dione] | 2.61 nM | 74% | 23.8 nM |  |  | 80.74% |  |  |
| CCOc1cc(N2CCC(N3CCN(CCCc4cccc5c4oc(=O)n5C4CCC(=O)NC4=O)CC3)CC2)c(CC)cc1Nc1ncc(Br)c(Nc2ccc3nc(CC)ncc3c2P(C)(C)=O)n1 (stereo not shown) [Example 615, 3-(7-(3-(4-(1-(4-((5-bromo-4-((5-(dimethylphosphoryl)-2-ethylquinazolin-6-yl)amino)pyrimidin-2-yl)amino)-5-ethoxy-2-ethylphenyl)piperidin-4-yl)piperazin-1-yl)propyl)-2-oxobenzo[d]oxazol-3(2H)-yl)piperidine-2,6-dione] |  | 72.36% |  |  | 0.921 nM |  | 7.91 nM | 91% |
| CCOc1cc(N2CCC(N3CCN(CCc4cc5oc(=O)n(C6CCC(=O)NC6=O)c5cc4C(F)(F)F)CC3)CC2)c(CC)cc1Nc1ncc(Br)c(Nc2ccc3nc(CC)ccc3c2P(C)(C)=O)n1 (stereo not shown) [Example 616, 3-(6-(2-(4-(1-(4-((5-bromo-4-((5-(dimethylphosphoryl)-2-ethylquinolin-6-yl)amino)pyrimidin-2-yl)amino)-5-ethoxy-2-ethylphenyl)piperidin-4-yl)piperazin-1-yl)ethyl)-2-oxo-5-(trifluoromethyl)benzo[d]oxazol-3(2H)-yl)piperidine-2,6-dione] | 5.75 nM | 70.93% | 43.1 nM | 83.8% |  |  |  |  |
